Results from article PMC5201331, “Subchronic Toxicities of HZ1006, a Hydroxamate-Based Histone Deacetylase Inhibitor, in Beagle Dogs and Sprague-Dawley Rats” (International Journal of Environmental Research and Public …, 2016).

System: Beagle dogs
Test: Subchronic toxicity test in Beagle dogs: serum biochemistry
Format: in vivo
Protocol: HZ1006 was administered orally to dogs (four/sex/group) at doses of 80, 40, 20, 5 and 0 (control) mg/kg/day, and the dosage volume was 2 mL/kg. The dogs received test doses with the exact amounts on a weekly basis based on current body weights. […] The other dogs in the above groups were dissected on the planned days. For the other groups, half of the dogs were anatomized on d28 and the remaining half on d42.
The following indexes were examined for the dogs used in the study, twice during the pre-dosage period and on d14, d28 and d42. The following parameters were evaluated on d28 and d42 for the rats in the study:
The animal blood samples were collected in the tubes containing the coagulator and centrifuged at 500 g for 10 min; the supernatant was then collected into a new tube. The serum biochemistry indexes included the following: alanine aminotransferase (ALT), alkaline phosphatase (ALP), aspartate aminotransferase (AST), blood urea (BU), lactate dehydrogenase (LDH), total bilirubin (TBIL), creatinine (Crea), albumin (ALB), total protein (TP), triglycerides (TG), total cholesterol (TCH), γ-glutamyltranspeptidase (g-GT), glucose (GLU), creatine phosphokinase (CPK), uric acid (UA), phosphorus (P), and calcium (Ca^2+). The above parameters were analyzed using an Automatic Analyzer 7080 provided by Hitachi High-Technologies Corp. (Tokyo, Japan). An Na/K/Cl Analyzer EasyLyte PLUS from Medica Corp. (Bedford, MA, USA), was used to determine the levels of chloride (Cl^−), sodium (Na^+) and potassium (K^+) in the blood samples.

[1] = dog ♀6 (80 mg/kg/day oral), d0 (pre-dose)
[2] = dog ♀6 (80 mg/kg/day oral), d14 line (moribund, euthanized d8)
[3] = dog ♀28 (40 mg/kg/day oral), d0 (pre-dose)
[4] = dog ♀28 (40 mg/kg/day oral), d14 (died d16)
[5] = dogs, 5 mg/kg/day oral, d0 (pre-dose)
[6] = dogs, 5 mg/kg/day oral, d42 (recovery)
[7] = dogs, 20 mg/kg/day oral, d0 (pre-dose)

CCCCCCCNc1cc(/C=C/C(=O)NO)ccc1OCCN(CC)CC [HZ1006]
ALP: Alkaline phosphatase [1]: 1.50 µmol/s/L
ALT: Alanine aminotransferase [1]: 487 nmol/s/L
AST: Aspartate aminotransferase [1]: 456 nmol/s/L
BU: Blood urea [1]: 4.04 mmol/L
CPK: Creatine phosphokinase [1]: 3.06 µmol/s/L
CREA: Creatinine [1]: 52.8 µmol/L
LDH: Lactate dehydrogenase [1]: 2.78 µmol/s/L
TBIL: Total bilirubin [1]: 2.95 µmol/L
TCH: Total cholesterol [1]: 3.27 mmol/L
ALP: Alkaline phosphatase [2]: 3.86 µmol/s/L
ALT: Alanine aminotransferase [2]: 466 nmol/s/L
AST: Aspartate aminotransferase [2]: 1907 nmol/s/L
BU: Blood urea [2]: 15.20 mmol/L
CPK: Creatine phosphokinase [2]: 57.57 µmol/s/L
CREA: Creatinine [2]: 82.4 µmol/L
LDH: Lactate dehydrogenase [2]: 2.91 µmol/s/L
TBIL: Total bilirubin [2]: 11.53 µmol/L
TCH: Total cholesterol [2]: 11.04 mmol/L
TG: Triglycerides (dog ♀6 (80 mg/kg/day oral), printed in d0 line): 1.60 mmol/L
TCH: Total cholesterol (dog ♀6 (80 mg/kg/day oral), printed in d42 line): 0.31 mmol/L
ALP: Alkaline phosphatase [3]: 1.33 µmol/s/L
ALT: Alanine aminotransferase [3]: 428 nmol/s/L
AST: Aspartate aminotransferase [3]: 398 nmol/s/L
BU: Blood urea [3]: 4.08 mmol/L
CPK: Creatine phosphokinase [3]: 2.47 µmol/s/L
CREA: Creatinine [3]: 47.9 µmol/L
LDH: Lactate dehydrogenase [3]: 2.21 µmol/s/L
TBIL: Total bilirubin [3]: 2.18 µmol/L
TCH: Total cholesterol [3]: 5.85 mmol/L
ALP: Alkaline phosphatase [4]: 3.16 µmol/s/L
ALT: Alanine aminotransferase [4]: 852 nmol/s/L
AST: Aspartate aminotransferase [4]: 4924 nmol/s/L
BU: Blood urea [4]: 4.89 mmol/L
CPK: Creatine phosphokinase [4]: 6.39 µmol/s/L
CREA: Creatinine [4]: 37.8 µmol/L
LDH: Lactate dehydrogenase [4]: 2.06 µmol/s/L
TBIL: Total bilirubin [4]: 9.65 µmol/L
TCH: Total cholesterol [4]: 10.73 mmol/L
ALP: Alkaline phosphatase [5]: 1.47 ± 0.30 µmol/s/L
ALT: Alanine aminotransferase [5]: 559 ± 120 nmol/s/L
AST: Aspartate aminotransferase [5]: 463 ± 106 nmol/s/L
BU: Blood urea [5]: 4.03 ± 0.52 mmol/L
CPK: Creatine phosphokinase [5]: 2.94 ± 1.40 µmol/s/L
CREA: Creatinine [5]: 51.5 ± 9.3 µmol/L
LDH: Lactate dehydrogenase [5]: 3.08 ± 1.36 µmol/s/L
TBIL: Total bilirubin [5]: 2.34 ± 0.31 µmol/L
TCH: Total cholesterol [5]: 4.28 ± 0.36 mmol/L
TG: Triglycerides [5]: 0.43 ± 0.11 mmol/L
ALP: Alkaline phosphatase (dogs, 5 mg/kg/day oral, d14): 1.45 ± 0.35 µmol/s/L
ALT: Alanine aminotransferase (dogs, 5 mg/kg/day oral, d14): 521 ± 116 nmol/s/L
AST: Aspartate aminotransferase (dogs, 5 mg/kg/day oral, d14): 442 ± 105 nmol/s/L
BU: Blood urea (dogs, 5 mg/kg/day oral, d14): 4.10 ± 0.90 mmol/L
CPK: Creatine phosphokinase (dogs, 5 mg/kg/day oral, d14): 2.63 ± 1.36 µmol/s/L
CREA: Creatinine (dogs, 5 mg/kg/day oral, d14): 51.0 ± 9.9 µmol/L
LDH: Lactate dehydrogenase (dogs, 5 mg/kg/day oral, d14): 2.27 ± 1.24 µmol/s/L
TBIL: Total bilirubin (dogs, 5 mg/kg/day oral, d14): 2.01 ± 0.41 µmol/L
TCH: Total cholesterol (dogs, 5 mg/kg/day oral, d14): 3.98 ± 0.64 mmol/L
TG: Triglycerides (dogs, 5 mg/kg/day oral, d14): 0.39 ± 0.08 mmol/L
ALP: Alkaline phosphatase (dogs, 5 mg/kg/day oral, d28): 1.51 ± 0.29 µmol/s/L
ALT: Alanine aminotransferase (dogs, 5 mg/kg/day oral, d28): 593 ± 105 nmol/s/L
AST: Aspartate aminotransferase (dogs, 5 mg/kg/day oral, d28): 424 ± 109 nmol/s/L
BU: Blood urea (dogs, 5 mg/kg/day oral, d28): 3.82 ± 0.51 mmol/L
CPK: Creatine phosphokinase (dogs, 5 mg/kg/day oral, d28): 2.43 ± 0.19 µmol/s/L
CREA: Creatinine (dogs, 5 mg/kg/day oral, d28): 51.4 ± 10.9 µmol/L
LDH: Lactate dehydrogenase (dogs, 5 mg/kg/day oral, d28): 2.71 ± 1.12 µmol/s/L
TBIL: Total bilirubin (dogs, 5 mg/kg/day oral, d28): 2.08 ± 0.52 µmol/L
TCH: Total cholesterol (dogs, 5 mg/kg/day oral, d28): 4.24 ± 0.56 mmol/L
TG: Triglycerides (dogs, 5 mg/kg/day oral, d28): 0.35 ± 0.11 mmol/L
ALP: Alkaline phosphatase [6]: 1.45 ± 0.37 µmol/s/L
ALT: Alanine aminotransferase [6]: 558 ± 90 nmol/s/L
AST: Aspartate aminotransferase [6]: 451 ± 79 nmol/s/L
BU: Blood urea [6]: 4.83 ± 0.20 mmol/L
CPK: Creatine phosphokinase [6]: 2.97 ± 0.18 µmol/s/L
CREA: Creatinine [6]: 55.6 ± 4.5 µmol/L
LDH: Lactate dehydrogenase [6]: 2.21 ± 1.32 µmol/s/L
TBIL: Total bilirubin [6]: 2.01 ± 0.33 µmol/L
TCH: Total cholesterol [6]: 3.99 ± 0.41 mmol/L
TG: Triglycerides [6]: 0.31 ± 0.09 mmol/L
ALP: Alkaline phosphatase [7]: 1.48 ± 0.48 µmol/s/L
ALT: Alanine aminotransferase [7]: 535 ± 92 nmol/s/L
AST: Aspartate aminotransferase [7]: 456 ± 92 nmol/s/L
BU: Blood urea [7]: 4.35 ± 0.98 mmol/L
CPK: Creatine phosphokinase [7]: 2.98 ± 0.64 µmol/s/L
CREA: Creatinine [7]: 51.6 ± 7.5 µmol/L
LDH: Lactate dehydrogenase [7]: 2.85 ± 0.86 µmol/s/L
TBIL: Total bilirubin [7]: 2.55 ± 0.28 µmol/L
TCH: Total cholesterol [7]: 4.31 ± 0.36 mmol/L
TG: Triglycerides [7]: 0.42 ± 0.09 mmol/L
ALP: Alkaline phosphatase (dogs, 20 mg/kg/day oral, d14): 0.85 ± 0.25 µmol/s/L
ALT: Alanine aminotransferase (dogs, 20 mg/kg/day oral, d14): 425 ± 105 nmol/s/L
AST: Aspartate aminotransferase (dogs, 20 mg/kg/day oral, d14): 384 ± 56 nmol/s/L
BU: Blood urea (dogs, 20 mg/kg/day oral, d14): 4.52 ± 1.05 mmol/L
CPK: Creatine phosphokinase (dogs, 20 mg/kg/day oral, d14): 2.43 ± 0.48 µmol/s/L
CREA: Creatinine (dogs, 20 mg/kg/day oral, d14): 58.6 ± 10.6 µmol/L
LDH: Lactate dehydrogenase (dogs, 20 mg/kg/day oral, d14): 1.23 ± 0.45 µmol/s/L
TBIL: Total bilirubin (dogs, 20 mg/kg/day oral, d14): 1.85 ± 0.16 µmol/L
TCH: Total cholesterol (dogs, 20 mg/kg/day oral, d14): 3.16 ± 0.34 mmol/L
TG: Triglycerides (dogs, 20 mg/kg/day oral, d14): 0.29 ± 0.08 mmol/L
